For eleven compounds, IC50 results are on record in ChEMBL document CHEMBL2176898, “3-Alkoxy-1,2-Dioxolanes: Synthesis and Evaluation as Potential Antimalarial Agents” (ACS Med Chem Lett, 2011).

This experiment has as its system Plasmodium falciparum. In words: microbe, parasite or virus in culture. Conditions: NF54.
Description: Antimicrobial activity against Plasmodium falciparum NF54
Regarding `CC1(C)CC(C)(OCC23CC4CC(CC(C4)C2)C3)OO1` (stereo unspecified), 290 nM corresponded to half-maximal inhibition (IC50).
The figure for `COC1(Cc2ccccc2)CC2(CCCCC2)OO1` (stereo unspecified) is 340 nM; for `CC1(OCCc2ccccc2)CC2(CCCCC2)OO1` (stereo unspecified) it is 9 nM; for `COC1(C2CCCCC2)CC2(CCCCC2)OO1` (stereo unspecified) it is 9.2 nM.
`COC1(Cc2ccccc2)CC(C)(C)OO1` (stereo unspecified) yielded an IC50 of 970 nM.
The compound `C[C@H]1[C@H](OC(=O)CCC(=O)O)O[C@@H]2O[C@@]3(C)CC[C@H]4[C@H](C)CC[C@@H]1[C@@]24OO3` [ARTESUNATE] came in with an IC50 of 2.5 nM.
The value for `CCCCC1(C)CC(C)(OCC23CC4CC(CC(C4)C2)C3)OO1` (mixture of isomers) was 140 nM; that for `CC1(OCC23CC4CC(CC(C4)C2)C3)CC2(CCCCC2)OO1` (stereo unspecified) was 35 nM; that for `CCCCC1(C)CC(C)(OCCC)OO1` (mixture of isomers) was above 4000 nM.
On to `CCCCC1(C)CC(C)(OCCc2ccccc2)OO1` (mixture of isomers), for which inhibition was half-maximal at 76 nM (IC50).
The value for `CCCCOC1(C)CC(C)(C)OO1` (stereo unspecified) was above 10000 nM.

As a reminder, the IC50 is the concentration needed to halve the response being measured. A lower IC50 goes with greater potency.
